Patent US4469786A (priority 1981, dated 1984)

Assays:
[1] = system: single-stranded .phi.105 DNA
DNA [2] = conditions: cited from earlier work
[3] = system: Salmonella tester strains; conditions: literature (McCann, Bartsch, Glatt); cited from earlier work
DNA [4] = conditions: transformation-based assay of Phillips et al.; cited from earlier work
[5] = system: replicative-form .phi.105DII:6C DNA; assay: gene linkage disruption in the marker rescue assay with .phi.105DII:6C DNA; conditions: PO, same conditions as Example 5 (25 to 100 mM)

## CC(=O)ON(C(C)=O)c1ccc2c(c1)Cc1ccccc1-2 [AAAF, N-acetyl-N-acetoxy-2-aminofluorine]
[1]
  frequency of clear PFU, earliest sample: there appeared to be an increase in the frequency of clear PFU
  marker rescue activity, subsequent samples: very rapid and extensive loss of marker rescue activity
[1]; 35 mM AAAF, 37° C., 1-9 min., Hcr^+ recipient GB68, FIG. 6
  numbers of clear-plaque mutants generated: increased with length of AAAF treatment
[1]; 35 mM AAAF, 37° C., subsequent samples, Hcr^- recipient GB7075
  frequency of clear-plaque mutants, subsequent samples: concomitant decrease in the frequency of clear-plaque mutants
DNA [2]
  lesion in DNA / reactivity with DNA: potent frameshift mutagen which forms two different guanine adducts

## O=CCCl [CAA, chloroacetaldehyde]
DNA [2]
  lesion in DNA / reactivity with DNA: reacts with adenines and cytosines to form imidazonucleoside derivatives

## ClC(Cl)(Cl)Cl [CCl4]
[3]
  mutagenicity in the Ames assay: not mutagenic in the Ames assay

## ClC(Cl)Cl [CHCl3]
[3]
  mutagenicity in the Ames assay: not mutagenic in the Ames assay

## ClC(Cl)=C(c1ccc(Cl)cc1)c1ccc(Cl)cc1 [DDE]
[3]
  mutagenicity in the Ames assay: not mutagenic in the Ames assay

## NO [HA, hydroxylamine]
[1]
  marker rescue activity: loss of marker rescue activity
[1]; 1M HA, single-stranded DNA, 45° C., 0-60 minutes, GB68, FIG. 2
  frequency of clear PFU/total PFU (capacity of treated DNA to generate clear-plaque mutants): A time dependent increase in the capacity of the treated DNA to generate clear-plaque mutants
DNA [2]
  lesion in DNA / reactivity with DNA: induces predominantly guanine-cytosine to adenine-thymine transitions

## CC1CO1 (centres unmarked) [PO, propylene oxide]
[1]
  frequency of clear PFU at the highest concentration: a decrease in the frequency of clear PFU
  marker rescue activity: No consistent decrease in marker rescue activity
  significance (p) of increase in frequency of clear PFU: < 0.001
DNA [4]
  strand scission: PO-induced strand scission which was observed
DNA [2]
  lesion in DNA / reactivity with DNA: reacts with guanine and adenine residues but has also been claimed to react with the phosphodiester backbone of DNA producing strand scissions
[5]
  disruption of linkage between J^+ allele and DII:6C mutation: no significant disruption of linkage

## ClC1=C(Cl)[C@]2(Cl)[C@@H]3[C@@H]4C[C@@H]([C@H]5O[C@@H]45)[C@@H]3[C@@]1(Cl)C2(Cl)Cl [dieldrin]
[3]
  mutagenicity in the Ames assay: not mutagenic in the Ames assay

## CC/C(=C(/CC)c1ccc(O)cc1)c1ccc(O)cc1 [diethylstilbestrol]
[3]
  mutagenicity in the Ames assay: not mutagenic in the Ames assay
